Source: patent US20250059198A1, “BRM DEGRADING COMPOUNDS AND ASSOCIATED METHODS OF USE” (Arvinas Operations, Inc., priority 2021, published 2025)

Target: T1, BRM (Homo sapiens, UniProt P51531)
T1 construct: Western Blot Screen of BRM Degradation in SW1573 Cells; endogenous in cells; host or cells: SW1573 cells
Test: BRM degradation (Dmax and DC50) in SW1573 cells, Western blot screen / In-Cell Western screen
Type: cell-based
Conditions: overnight (18-20 hours) treatment; for Dmax: read-out: Dmax (%)** (% degraded)
Experimental: (§1) To assess BRM degradation (Dmax and DC50) cells were seeded at 8000/well in 96-well black/clear-bottom plates in 180 μL DMEM growth media (containing 1% pen-strep, 1% HEPES and 10% FBS) per well. Plates were incubated overnight to allow adhesion. The next morning cells were treated by adding 20 μL of 10× target compound concentration (1% DMSO) to appropriate wells and returned to incubator for overnight (18-20 hours). The final DMSO concentration was 0.1%.
For lysing, adherent cells were washed once with 100 μL of DPBS. Cells were lysed in 40 μL of 1×RIPA+HALT protease inhibitor on ice for 10 minutes and frozen until use at −80° C. Thawed lysates were cleaned by filtration in 1.2 µm filter plates, or alternatively, were spun clean at 2300 g at 4° C. for 30 minutes.
For blotting, for each Western sample 30 μL of lysate was added to 10 μL of 4× LDS sample buffer, then denatured at 95° C. for 5 minutes in the thermal cycler and placed on ice. Samples were loaded on 4-15% Tris/Glycine gels and run for 25 minutes at 250 constant volts in 1× Tris/Glycine buffer with 4 μL of ladder and 12 μL of each sample loaded for each blot. Protein was transferred from gels to NC with BioRad Turbo dry-transfer unit with the Turbo/midi default program. All blots were rinsed with ddH2O and blocked for 1 hour at room temperature in 5% BSA in TBST (0.1%) on rocker. Blots were exposed to primary antibody in 5% BSA in TBST (0.1%) overnight at 4° C. on rocker (1:1000 for BRM (Cell Signaling Tech. cat #11966) and 1:2000 for alpha-tubulin (Cell Signaling Tech. cat #3873), a control protein. Blot was washed with TBST (0.1%) three times for 5 minutes on rocker at room temperature. Secondary antibody was added, and blots were incubated on a room temperature rocker for 1 hour with 1:18,000 anti-rabbit-HRP and/or anti-mouse-HRP in 5% BSA in TBST (0.1%). Blots were washed three times in TBST (0.1%) for 5 minutes at room temperature on the rocker. Signal was developed with Femto Maximum Sensitivity substrate for 4 minutes and blots read on ChemiDoc™.
as §1, with “DC50),” for “DC50)”, “10×” for “10× target”, “compound” for “compound concentration”
For processing, the plates were removed from incubator, the media was removed, and immediately 200 μL of cold (4° C.) DPBS was added to all wells. DPBS was then removed, and 50 μL of 4% paraformaldehyde (PFA) in DPBS (4° C.) was added to all wells, and the plates were incubated at room temperature for 20 minutes. PFA was then removed, and 200 μL of TBS-T containing 0.5% Triton X-100 was added to all wells, and the plates were incubated at room temperature for 30 minutes. TBS-T containing 0.5% Triton X-100 was then removed, and 50 μL of Li-Cor blocking solution was added, and the plates were incubated at room temperature for a minimum of one hour. The blocking solution was removed, and 50 μL of Li-Cor blocking solution containing primary antibody cocktail was added (1:1000 for BRM (Cell Signaling Tech. cat #11966) and 1:2000 for alpha-tubulin (Sigma cat #T6074), a control protein. Plates were then placed in cold room until the next day.
The next day plates were washed three times with TBS-T, 200 μL per well. Fifty […] of secondary antibody cocktail in LI-COR blocking solution (anti-rabbit_800 nm and anti-mouse_680 nm) was added to all wells (diluted 1:5000). The plates were incubated at room temperature for at least one hour while protected from light. The plates were washed twice with TBS-T, 200 μL per well.
To read each plate TBS-T was removed, and each plate was inverted tapped on a paper towel. […]

T1 sequence (P51531 whole entry): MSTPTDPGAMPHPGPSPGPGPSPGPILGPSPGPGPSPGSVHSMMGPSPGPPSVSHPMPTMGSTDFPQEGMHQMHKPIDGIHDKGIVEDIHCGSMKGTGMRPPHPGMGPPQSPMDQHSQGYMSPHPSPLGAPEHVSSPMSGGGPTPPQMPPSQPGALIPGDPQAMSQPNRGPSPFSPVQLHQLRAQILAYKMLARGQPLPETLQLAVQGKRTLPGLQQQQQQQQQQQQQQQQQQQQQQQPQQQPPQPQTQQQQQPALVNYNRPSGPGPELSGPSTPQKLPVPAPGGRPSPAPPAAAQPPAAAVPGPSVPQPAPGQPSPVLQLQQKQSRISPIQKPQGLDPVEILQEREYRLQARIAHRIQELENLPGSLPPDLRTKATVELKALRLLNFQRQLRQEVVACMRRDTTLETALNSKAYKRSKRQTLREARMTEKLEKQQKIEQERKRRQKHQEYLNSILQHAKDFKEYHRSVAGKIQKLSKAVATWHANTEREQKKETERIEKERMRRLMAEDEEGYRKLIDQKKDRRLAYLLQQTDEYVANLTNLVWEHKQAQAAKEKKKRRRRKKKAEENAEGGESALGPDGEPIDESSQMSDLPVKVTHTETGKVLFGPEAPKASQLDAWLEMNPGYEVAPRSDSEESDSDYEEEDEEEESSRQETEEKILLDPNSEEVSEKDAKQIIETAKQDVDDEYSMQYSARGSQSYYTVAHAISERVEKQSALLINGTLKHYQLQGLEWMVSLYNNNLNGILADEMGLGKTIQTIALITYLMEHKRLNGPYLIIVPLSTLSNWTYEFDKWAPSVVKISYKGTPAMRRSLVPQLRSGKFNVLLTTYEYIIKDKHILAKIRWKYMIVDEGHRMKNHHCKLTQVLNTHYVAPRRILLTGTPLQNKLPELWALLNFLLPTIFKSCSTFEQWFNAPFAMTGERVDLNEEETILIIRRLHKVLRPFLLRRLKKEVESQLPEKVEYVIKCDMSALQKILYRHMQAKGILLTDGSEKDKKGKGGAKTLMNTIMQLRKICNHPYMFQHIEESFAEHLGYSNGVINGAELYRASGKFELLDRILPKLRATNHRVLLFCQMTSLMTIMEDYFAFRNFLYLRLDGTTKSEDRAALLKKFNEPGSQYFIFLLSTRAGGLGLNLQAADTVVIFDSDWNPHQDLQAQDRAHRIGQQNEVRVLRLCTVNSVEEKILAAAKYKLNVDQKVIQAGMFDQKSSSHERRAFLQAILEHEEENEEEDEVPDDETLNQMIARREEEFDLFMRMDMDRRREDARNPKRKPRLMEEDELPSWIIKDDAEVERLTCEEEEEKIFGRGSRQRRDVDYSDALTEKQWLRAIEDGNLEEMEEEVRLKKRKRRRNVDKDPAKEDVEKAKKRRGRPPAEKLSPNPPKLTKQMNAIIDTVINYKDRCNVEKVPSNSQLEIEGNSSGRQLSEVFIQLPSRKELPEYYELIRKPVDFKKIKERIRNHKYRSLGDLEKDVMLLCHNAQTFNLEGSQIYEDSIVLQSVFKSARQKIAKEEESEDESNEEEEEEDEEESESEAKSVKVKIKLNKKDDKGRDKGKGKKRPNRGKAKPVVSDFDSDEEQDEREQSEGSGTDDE

Structure (SMILES)	DC50	Dmax
Cc1ncsc1-c1ccc([C@H](C)NC(=O)[C@@H]2C[C@@H](O)CN2C(=O)[C@@H](c2cc(N3CCC(CN4CCC5(CC4)CC(N4C[C@H](CN6C7CCC6CN(c6cc(-c8ccccc8O)nnc6N)C7)O[C@H](C)C4)C5)CC3)no2)C(C)C)cc1 [Compound 73, (2S,4R)-1-[(2R)-2-{3-[4-({2-[(2R,6R)-2-({3-[3-amino-6-(2-hydroxyphenyl)pyridazin-4-yl]-3,8-diazabicyclo[3.2.1]octan-8-yl}methyl)-6-methylmorpholin-4-yl]-7-azaspiro[3.5]nonan-7-yl}methyl)piperidin-1-yl]-1,2-oxazol-5-yl}-3-methylbutanoyl]-4-hydroxy-N-[(1S)-1-[4-(4-methyl-1,3-thiazol-5-yl)phenyl]ethyl]pyrrolidine-2-carboxamide]	< 2.5 nM	> 75%
Cc1ncsc1-c1ccc([C@H](C)NC(=O)[C@@H]2C[C@@H](O)CN2C(=O)[C@@H](c2cc(OCCN3CCC(OC(=O)N4CCN(c5cc(-c6ccccc6O)nnc5N)CC4)CC3)no2)C(C)C)cc1 [Compound 64, 1-[2-({5-[(2R)-1-[(2S,4R)-4-hydroxy-2-{[(1S)-1-[4-(4-methyl-1,3-thiazol-5-yl)phenyl]ethyl]carbamoyl}pyrrolidin-1-yl]-3-methyl-1-oxobutan-2-yl]-1,2-oxazol-3-yl}oxy)ethyl]piperidin-4-yl 4-[3-amino-6-(2-hydroxyphenyl)pyridazin-4-yl]piperazine-1-carboxylate]	2.5 to 10 nM	> 75%
CC(C)[C@@H](C(=O)N1C[C@H](O)C[C@H]1C(=O)N[C@@H](C)c1ccc(-c2ccnn2C)cc1)c1cc(N2CCC(OC3CCN(CC4CC(N5CCC([C@H](C)n6cc(C#Cc7cc(-c8ccccc8O)nnc7N)cn6)CC5)C4)CC3)CC2)no1 (stereo partly drawn) [Compound 112, (2S,4R)-1-[(2R)-2-{3-[4-({1-[(3-{4-[(1S)-1-(4-{2-[3-amino-6-(2-hydroxyphenyl)pyridazin-4-yl]ethynyl}-1H-pyrazol-1-yl)ethyl]piperidin-1-yl}cyclobutyl)methyl]piperidin-4-yl}oxy)piperidin-1-yl]-1,2-oxazol-5-yl}-3-methylbutanoyl]-4-hydroxy-N-[(1S)-1-[4-(1-methyl-1H-pyrazol-5-yl)phenyl]ethyl]pyrrolidine-2-carboxamide]	< 2.5 nM	> 75%
Cc1ncsc1-c1ccc([C@H](C)NC(=O)[C@@H]2C[C@@H](O)CN2C(=O)[C@@H](c2cc(N3CCN(C(=O)N4CCC(O[C@H]5C[C@H](Oc6cc(N7C8CCC7CN(c7cc(-c9ccccc9O)nnc7N)C8)ccn6)C5)CC4)CC3)no2)C(C)C)cc1 [Compound 123, (2S,4R)-4-hydroxy-N-[(1S)-1-[4-(4-methyl-1,3-thiazol-5-yl)phenyl]ethyl]-1-[(2S)-3-methyl-2-[3-(4-{4-[(1r,3r)-3-[(4-{3-[3-amino-6-(2-hydroxyphenyl)pyridazin-4-yl]-3,8-diazabicyclo[3.2.1]octan-8-yl}pyridin-2-yl)oxy]cyclobutoxy]piperidine-1-carbonyl}piperazin-1-yl)-1,2-oxazol-5-yl]butanoyl]pyrrolidine-2-carboxamide]	< 2.5 nM	> 75%
Cc1ncsc1-c1ccc([C@H](C)NC(=O)[C@@H]2C[C@@H](O)CN2C(=O)[C@@H](c2cc(N3CCC(CN4CCC(O[C@H]5C[C@H](N6CCC(C(=O)N7C8CCC7CN(c7cc(-c9ccccc9O)nnc7N)C8)CC6)C5)CC4)CC3)no2)C(C)C)cc1 [Compound 25, (2S,4R)-4-hydroxy-N-[(1S)-1-[4-(4-methyl-1,3-thiazol-5-yl)phenyl]ethyl]-1-[(2R)-3-methyl-2-{3-[4-({4-[(1r,3r)-3-(4-{3-[3-amino-6-(2-hydroxyphenyl)pyridazin-4-yl]-3,8-diazabicyclo[3.2.1]octane-8-carbonyl}piperidin-1-yl)cyclobutoxy]piperidin-1-yl}methyl)piperidin-1-yl]-1,2-oxazol-5-yl}butanoyl]pyrrolidine-2-carboxamide]	< 2.5 nM	> 75%
Cc1ncsc1-c1ccc([C@H](C)NC(=O)[C@@H]2C[C@@H](O)CN2C(=O)[C@@H](c2cc(N3CCC(CN4CCC(O[C@H]5C[C@H](CN6CCC(N7C8CCC7CN(c7cc(-c9ccccc9O)nnc7N)C8)CC6)C5)CC4)CC3)no2)C(C)C)cc1 [Compound 24, (2S,4R)-4-hydroxy-N-[(1S)-1-[4-(4-methyl-1,3-thiazol-5-yl)phenyl]ethyl]-1-[(2R)-3-methyl-2-{3-[4-({4-[(1r,3r)-3-[(4-{3-[3-amino-6-(2-hydroxyphenyl)pyridazin-4-yl]-3,8-diazabicyclo[3.2.1]octan-8-yl}piperidin-1-yl)methyl]cyclobutoxy]piperidin-1-yl}methyl)piperidin-1-yl]-1,2-oxazol-5-yl}butanoyl]pyrrolidine-2-carboxamide]	< 2.5 nM	> 75%
Cc1ncsc1-c1ccc([C@H](C)NC(=O)[C@@H]2C[C@@H](O)CN2C(=O)[C@@H](c2cc(N3CCC(CN4CCC5(CC4)CC(n4cc(C#Cc6cc(-c7ccccc7O)nnc6N)cn4)C5)CC3)no2)C(C)C)cc1 [Compound 63, (2S,4R)-1-[(2R)-2-[3-(4-{[2-(4-{2-[3-amino-6-(2-hydroxyphenyl)pyridazin-4-yl]ethynyl}-1H-pyrazol-1-yl)-7-azaspiro[3.5]nonan-7-yl]methyl}piperidin-1-yl)-1,2-oxazol-5-yl]-3-methylbutanoyl]-4-hydroxy-N-[(1S)-1-[4-(4-methyl-1,3-thiazol-5-yl)phenyl]ethyl]pyrrolidine-2-carboxamide]	< 2.5 nM	> 75%
Cc1ncsc1-c1ccc([C@H](C)NC(=O)[C@@H]2C[C@@H](O)CN2C(=O)[C@@H](c2cc(N3CCC(CN4CC[C@@H](OC(=O)N5CCN(c6cc(-c7ccccc7O)nnc6N)CC5)[C@@H](F)C4)CC3)no2)C(C)C)cc1 [Compound 101, (3S,4R)-3-fluoro-1-[(1-{5-[(2R)-1-[(2S,4R)-4-hydroxy-2-{[(1S)-1-[4-(4-methyl-1,3-thiazol-5-yl)phenyl]ethyl]carbamoyl}pyrrolidin-1-yl]-3-methyl-1-oxobutan-2-yl]-1,2-oxazol-3-yl}piperidin-4-yl)methyl]piperidin-4-yl 4-[3-amino-6-(2-hydroxyphenyl)pyridazin-4-yl]piperazine-1-carboxylate]	< 2.5 nM	> 75%
Cc1ncsc1-c1ccc([C@H](C)NC(=O)[C@@H]2C[C@@H](O)CN2C(=O)[C@@H](c2cc(N3CCC(CN4CCC(O[C@H]5C[C@H](N6CCC(C(C)n7cc(/C=C/c8cc(-c9ccccc9O)nnc8N)cn7)CC6)C5)CC4)CC3)no2)C(C)C)cc1 (stereo partly drawn) [Compound 69, (2S,4R)-4-hydroxy-N-[(1S)-1-[4-(4-methyl-1,3-thiazol-5-yl)phenyl]ethyl]-1-[(2R)-3-methyl-2-{3-[4-({4-[(1r,3r)-3-[4-(1-{4-[(1E)-2-[3-amino-6-(2-hydroxyphenyl)pyridazin-4-yl]ethenyl]-1H-pyrazol-1-yl}ethyl)piperidin-1-yl]cyclobutoxy]piperidin-1-yl}methyl)piperidin-1-yl]-1,2-oxazol-5-yl}butanoyl]pyrrolidine-2-carboxamide]	< 2.5 nM	> 75%
